Test system: IL-12 p70
Experiment: IL-12 p70 production in human monocyte-derived dendritic cells
Format: cell-based
Settings: IFN-γ primed then SAC or LPS
Protocol: Although c-Rel has a role in the expression of both p35 and p40 in monocytes and macrophages as well as p35 in dendritic cells (DCs), p40 expression in dendritic cells is c-Rel-independent (Grumont et al. J. Exp. Med. 2001; 194:1021-1031). If Compound 2 is acting through c-Rel, this drug should inhibit both p40 and p70 production by PBMCs. However, Compound 2 should inhibit the production of p70 (through inhibition of p35) in DCs, but should not inhibit p40 in DCs. This was tested by generating monocyte-derived dendritic cells according to the following method. Human PBMC at 1×10^7 cells/ml were suspended in serum-free DMEM and incubated for 2 hrs at 37° C. under 5% CO2. The non-adherent cells then were removed by washing with PBS. The adherent cells were cultured in RPMI-1640 medium containing rhIL-4 (100 U/ml) and rhGM-CSF (1000 U/ml) for 6-7 days. The half volume fresh media and full-volume fresh cytokines were added every other day. The cells were then primed with IFN-γ (100 U/ml) and followed by 0.01% SAC or 1 μg/ml LPS, in the presence of different concentrations of Compound 2 or other compounds. The test compounds were prepared in DMSO and the final DMSO concentration was adjusted to 0.25% in all cultures, including the compound-free control. Cell-free supernatants were taken 18 h later for the measurement of cytokines.

Compound: Cc1cccc(C=NNc2cc(N3CCOCC3)nc(OCCc3ccccn3)n2)c1 [Compound 2, N-(3-methyl-benzylidene)-N′-[6-morpholin-4-yl-2-(2-pyridin-2-yl-ethoxy)-pyrimidin-4-yl]-hydrazine]
- p70 production in human DCs: inhibit
